Laboratory results: patent publication US20210380547A1, “UREA DERIVATIVES FOR TREATING AND/OR PREVENTING CANCER” (CENTRE NATIONAL DE LA RECHERCHE SCIENTIFIQUE, priority 2018, published 2021)
“Also recorded” adds a separate entry of the source.

Tests used:
[1] = tested on: MolM13; assay: XTT cell viability assay, MolM13; type: cell-based, human; conditions: Homo sapiens, MOLM-13; XTT assay (48 h); standard deviation of 10%; read-out: EC50 (μM) AML MolM13
Method: (§1) Fifty microliters of sodium 3′-[1-phenylaminocarbonyl)-3,4-tetrazolium]-bis(4-methoxy-6-nitro) benzene sulfonic acid hydrate (XTT) reagent was added to each well. The assay is based on the cleavage of the yellow tetrazolium salt XTT to form an orange formazan dye by metabolically active cells. The absorbance of the formazan product, reflecting cell viability, was measured at 490 nm. Each assay was performed in quadruplicate.
(§2) Compounds #1-#14 have been assayed as potential anti-proliferative agents against a panel of human breast head and neck, and kidney tumor cells and hematological malignancies, selected on the basis of their aggressiveness (e.g. incurable triple-negative breast cancer cells: MDA-MB-231; kidney ccRCC cells: RCC4, A498 and 786-O and 786R; head and neck cancer cells: CAL33, CAL33RR, CAL27, and CAL27RR; acute myeloid cell lines: OCI-AML2, OCI-AML3, MolM13, and MolM14; myelodysplastic cell line: SM1; and chronic myeloid cell line: CML). All these cell lines share as common denominator the expression of CXCR1 and CXCR2. The EC50 values have been measured by a XTT colorimetric assay, and compared to those of SB-225002, used as a reference; the results are listed in Table 1.

[2] = tested on: phosphorylation of ERK and AKT; assay: Immunoblotting of p-ERK and p-AKT in 786-O and 786-R; type: cell-based, human; conditions: 2.5 μM, 1 to 48 h
Method: H: 786-O and 786-R were treated with 2.5 μM compound #1 for 1 to 48 h. p-ERK and p-AKT levels were determined by immunoblotting. ERK and AKT served as loading controls. *P<0.05; **P<0.01; ***P<0.001.
(§3) Cells were lysed in buffer containing 3% SDS, 10% glycerol and 0.825 mM Na2HPO4. 30 to 50 μg of proteins were separated on 10% SDS-PAGE, transferred onto a PVDF membrane (Immobilon, Millipore, France) and then exposed to the appropriate antibodies. Proteins were visualized with the ECL system using horseradish peroxidase-conjugated anti-rabbit or anti-mouse secondary antibodies.

[3] = tested on: 786-O; assay: XTT cell viability assay, 786-O; type: cell-based, human
Method: A, B: Naive (786-O, A), and sunitinib-resistant (786-R, B) 786-O cells, were treated with compound #1 or sunitinib (1 to 10 μM) for 48 hr. Cell viability was measured by XTT assays;
D, E: 786-O (D), 786-R (E), were treated with 2.5 μM compound #1 or 2.5 μM sunitinib for 24 h to 96 h. The cells metabolism was measured by XTT assay;
as §1, §2

[4] = tested on: CAL33; assay: XTT cell viability assay, CAL33; type: cell-based; conditions: Homo sapiens, CAL-33; XTT assay (48 h); standard deviation of 10%; read-out: EC50 (μM) Head and Neck CAL33
Method: as §1, §2

[5] = tested on: 786-O and 786-R cells; assay: Clonogenicity (colony formation) assay, RCC cells; type: cell-based, human; conditions: 1 μM, 10 days
Method: G: Clonogenicity assays: RCC cells ([…] and 786-R) were treated with compound #1 or sunitinib (1 μM) and colored with Giemsa blue after 10 days (representative results of an experiment repeated trice);
Cells (5000 cells per condition) were treated or not with compound #1 and sunitinib, and cisplatin. Colonies were detected after 10 days of culture. Cells were then washed, fixed at room temperature for 20 min with 3% paraformaldehyde (PFA; Electron Microscopy Sciences) and colored by GIEMSA (Sigma)

[6] = tested on: A498 cells; assay: Tumor xenograft experiment (ectopic model of RCC); type: in vivo, mice
Method: as §3
One microgram of total RNA was used for the reverse transcription, using the QuantiTect Reverse Transcription kit (QIAGEN, Hilden, Germany), with a blend of oligo (dT) and random primers to prime first-strand synthesis. SYBR master mix plus (Eurogentec, Liege, Belgium) was used for qPCR. The mRNA level was normalized to 36B4 mRNA.
Ectopic model of RCC: seven million A498 cells were injected subcutaneously into the flank of 5-week-old nude (nu/nu) female mice (Janvier, France). The tumor volume was determined with a caliper (v=L*1^2*0.5). When the tumor reached 100 mm^3, mice were treated five a week for 4 weeks, by gavage with placebo (dextrose water vehicle) or compound #1 (50 mg/kg). This study was carried out in strict accordance with the recommendations in the Guide for the Care and Use of Laboratory Animals. Our experiments were approved by the “Comite national institutionnel d′éthique pour l'animal de laboratoire (CIEPAL)”
Sections from blocks of formol-fixed and paraffin-embedded tumors were examined for immunostaining. Sections were incubated with monoclonal anti-Ki67 (clone MIB1, DAKO, Ready to use) antibodies. Biotinylated secondary antibody (DAKO) was applied and binding was detected with the substrate diaminobenzidine against a hematoxylin counterstain.
Mice were xenografted with the highly aggressive ccRCC cells (A498), which form highly vascularized tumors.

[7] = tested on: primary normal kidney cells (15S); assay: XTT cell viability, primary normal kidney cells; type: cell-based, human; conditions: up to 5 μM, XTT 48 h
Method: A: Primary RCC cells (TF and CC) and normal renal cells (15S) were treated with compound #1 (1 to 5 μM) for 48 h. Cell viability was measured by XTT assays;
as §1
The biological effects of compound #1 on primary RCC tumors cells and normal renal cells harvested from patients suffering from kidney cancer have been explored (FIG. 4).

[8] = tested on: malignant (ccRCC and hematological) cells; assay: FACS analysis of cell death markers (AV, PI), malignant cells; type: cell-based, human; conditions: 5 μM, 48 h
Method: FIG. 1: Observation by FACS analyses of early (Annexin AV) and late (Propidium Iodide, PI) apoptosis markers expressed by healthy and malignant cells after treatment with compounds #1 and #2 at 5 μM. CT: negative control.
Apoptosis analysis: After stimulation, cells were washed with ice-cold PBS and were stained with the annexin-V-fluos staining kit (Roche, Meylan, France) according to the manufacturer's procedure. Fluorescence was measured by using the FL2 (AV) and FL3 (propidium iodide, PI) channels of a fluorescence-activated cell sorter apparatus (Calibur cytometer).
To complete these XTT assays, malignant (ccRCC and hematological) and healthy (human fibroblasts FHN) cells have been grown with compounds #1 or #2, and after 48h the expression of cell death markers (AV and PI) has been quantified by FACS analyses (FIG. 1).

[9] = tested on: RCC4; assay: XTT cell viability assay, RCC4; type: cell-based; conditions: Homo sapiens, XTT assay (48 h), standard deviation of 10%, read-out: EC50 (μM) Kidney RCC4
Method: as §1, §2

O=C(Nc1cccc(Cl)c1)Nc1nc2ccc([N+](=O)[O-])cc2s1 [Compound #1, 1-(3-chlorophenyl)-3-(6-nitrobenzo[d]thiazol-2-yl)urea]
EC50 [1]: 7 µM
phosphorylation of ERK and AKT [2]: inhibits the phosphorylation of ERK and AKT
time of treatment to total inhibition of proliferation ([3]; 786-O cells, 2.5 μM, XTT 24 h to 96 h): approximately 65 hours
EC50 ([3]; Homo sapiens, 786-0, XTT assay (48 h), standard deviation of 10%, read-out: EC50 (μM) Kidney 786-O): 2 µM
EC50 [4]: 2 µM
clonogenicity [5]: exerts a cytostatic effect
reduction of the tumor weight ([6]; A498 xenograft, 50 mg/kg gavage, end of experiment): more than 35%
reduction of tumor volume ([6]; A498 xenograft, 50 mg/kg gavage, end of experiment (day 70)): more than 65%
mRNA level of CXCL5 in tumors ([6]; human, qPCR): significantly decreased
mRNA level of CXCL7 in tumors ([6]; human, qPCR): significantly decreased
mRNA level of CXCL8 in tumors ([6]; human, qPCR): significantly decreased
mRNA level of VEGFA in tumors ([6]; human, qPCR): not those of VEGFA
AKT phosphorylation in tumor lysates ([6]; immunoblotting): inhibits AKT
ERK phosphorylation in tumor lysates ([6]; immunoblotting): not ERK
weight of the animals ([6]; treated group, day 70): No weight loss
labelling of the proliferation marker Ki-67 ([6]; tumor immunostaining): significantly decreases
lowering of mRNA levels of murine CD31 ([6]; tumors, qPCR): more than 75%
effect on primary normal kidney cells (15S) [7]: no effect
early (AV) and late (PI) apoptosis markers on malignant cells [8]: cytotoxic effect on malignant cells; also recorded: more efficient than compound #2
EC50 [9]: 5 µM
